Like-named read-outs stand apart in the source and are kept apart here.
Columns and labels:
Plasma stability assay = format: in vitro ADME; settings: read-out: plasma stability t1/2
Source text: (§1) To gain further information regarding intracellular compound localization, studies were extended to include a marker for the ER (Figure 8). The staining pattern for the individual probes are shown in Figure 8A (ER), Figure 8B (Lysosome) and Figure 8D (probe 9a). […] Moreover, when all three channels were merged, white specks were observed, indicating co-localization of probe 9a with cellular structures that are stained by both ER and lysosomal marker dyes (Figure 8F). […] These mechanisms provide a plausible explanation for the lower potency of compound 9 compared to compound 10. Finally, in vitro ADME (absorption, distribution, metabolism, and elimination) profiles were evaluated for compounds 9 and 10 to compare with the obtained cellular data (Supplementary Material, Figure S10). The aqueous solubility properties at physiological pH (7.40) of compounds 9 and 10 were good compared to controls. […] The combined findings indicate that the steric-effects of the hydroxysuccinate appendage of compound 10 renders it less prone to degradation by lysosomal activity or other competing cellular removal mechanisms.

PAMPA assay = format: in vitro ADME
Source text: as §1

NALM-06 = experiment: CTG viability assay (CellTiter-Glo, 72 h); format: cell-based; settings: Homo sapiens, mean ± SEM of triplicates
Description: (§2) All human cell lines were incubated at 37 °C in a 5% CO2 atmosphere and maintained under sterile conditions. Cells were tested for Mycoplasma (Lonza, Alpharetta, GA, USA) using the manufacturer’s conditions prior to experiments. Cell lines were purchased from American Type Culture Collection (ATCC, Manassas, VA, USA) or Leibniz-Institute Deutsche Sammlung von Mikroorganismen und Zellkulturen GmbH (DSMZ, Braunschweig, Germany) and cultured without antibiotics unless stated. Leukemia cells were cultured in RPMI and supplemented with 10% fetal bovine serum (FBS, Hyclone, Logan, UT, USA). SUP-B15, and KOPN-8 lines were cultured in RPMI supplemented with 10% FBS (Hyclone), 1% GlutaMAX™, 1% Pen/Step, and 0.1% β-mercaptoethanol. BJ cells were cultured in EMEM media supplemented with 10% FBS (Hyclone). Breast cancer cells (MDA-MB-231 & SUM149) were cultured in DMEM and Ham’s F12 respectively, supplemented with 10% FBS, 1% GlutaMAX™, 1% Pen/Step, and 2 µM cortisol/1 µg/mL insulin for SUM149. Both cells were grown to 80% confluence densities as recommended by ATCC. PBMCs were supplemented with concanavalin-A (5 μg/mL) and IL-2 (50 U/ml). To test general cytotoxicity, the following cell numbers were used for 384 well plates: KOPN-8 (ACC 552, infant human B cell precursor acute lymphoblastic leukemia with MLL-MLLt1/ENL fusion, 1000 cells/well), SUP-B15 (ACC389, human B cell precursor acute lymphoblastic leukemia of pediatric second relapse carrying the ALL-variant (m-bcr) of BCR-ABL1 fusion gene (e1-a2), 1600 cells/well), NALM-06 (DSMZ ACC128, non-T/non-B ALL at relapse with P15INK4B and P16INK4A deletions, 1200 cells/well), UoC-B1 (pediatric BCP-ALL at second relapse with TCF3/E2A-HFL fusion, 1000 cells/well), BJ (CRL-2522, normal human foreskin fibroblast cells, 400 cells/well) and PBMCs (periphery blood monocyte cells from healthy donors, IBC#BDC046, 10,000 cells/well).
(§3) Cytotoxicity evaluation was performed using the CellTiter-Glo Luminescent Cell Viability Assay kit (G7570, Promega, Madison, WI, USA), according to the manufacturer’s instructions. Briefly, the cell concentrations used were experimentally determined to ensure logarithmic growth during the 72-h duration of the experiment, and avoid adverse effects on cell growth by DMSO exposure. 1 × 10^3–4.8 × 10^3 or 4 × 10^2–1.2 × 10^3 cells/well were seeded in 96 or 384-well white flat-bottomed plates (3610 or 8804BC, Corning, Corning, NY, USA) in 100 µL or 30 µL/well, respectively. The plates were incubated at 37 °C in 5% CO2 for 24 h before drugging. Test compounds (10 mM in DMSO) in nine 3-fold serial dilutions were dispensed via pintool (Biomek liquid handler, Beckman, Indianapolis, USA) to assay plates. The final concentration of DMSO was 0.3% (v/v) in each well. The positive controls included staurosporine (10 μM), and gambogic acid (10 μM). The plates were incubated for 72 h at 37 °C in 5% CO2, then quenched with CellTiter-Glo® (Promega, Madison, WI, USA, 50 µL/96 or 30 µL/384), centrifuged at 1000 rpm for 1 min and incubated at RT for 20 min. Luminescence was recorded with a plate reader (Envision, Perkin Elmer, Waltham, MA, USA). The mean luminescence of each experimental treatment group was normalized as a percentage of the mean intensity of untreated controls. EC50 values were calculated by Pipeline Pilot software (Accelrys, Enterprise Platform, San Diego, CA, USA).

UoC-B1 = experiment: CTG viability assay (CellTiter-Glo, 72 h); format: cell-based; settings: Homo sapiens, mean ± SEM of triplicates
Description: as §2, §3

PBMC = experiment: CTG viability assay (CellTiter-Glo, 72 h); format: cell-based; settings: Homo sapiens, non-cancerous cells
Description: as §2, §3

KOPN-8 = experiment: CTG viability assay (CellTiter-Glo, 72 h); format: cell-based; settings: Homo sapiens, mean ± SEM of triplicates
Description: as §2, §3

SUP-B15 = experiment: CTG viability assay (CellTiter-Glo, 72 h); format: cell-based, human
Description: as §2, §3

BJ = experiment: CTG viability assay (CellTiter-Glo, 72 h); format: cell-based, human; settings: for EC50: Homo sapiens, BJ, CellTiter-Glo, 72 h, non-cancerous cells
Description: as §2, §3

Aqueous solubility = format: physicochemical; settings: physiological pH (7.40), compared to controls
Source text: as §1

SUM149 = experiment: Propidium iodide (PI) assay, 48 h; settings: SUM149, 48 h, 3 µM
Description: The first step was to evaluate if the compounds display cytotoxicity against the adherent cells. Propidium iodide (PI) assay was performed for the drug resistant solid tumor cellular models (triple negative breast cancer models: SUM149 and MDA-MB-231) for 48 h (Figure 5) [30, 31].

Row | PAMPA permeability (PAMPA assay) | Structure (SMILES) | half-life (Plasma stability assay; human plasma) | half-life (Plasma stability assay; mouse plasma) | PAMPA permeability (PAMPA assay; PAMPA) | EC50 (NALM-06) | EC50 (UoC-B1) | EC50 (PBMC) | EC50 (KOPN-8) | EC50 (SUP-B15; Homo sapiens, SUP-B15, mean ± SEM of triplicates) | EC50 (BJ) | aqueous solubility (Aqueous solubility) | reduction of cell viability (SUM149) | EC50 (SUP-B15; Homo sapiens, SUP-B15, 72 h, mean ± SEM of triplicates) | EC50 (SUP-B15; mean ± SEM of triplicates) | activity against BJ (BJ; at the highest tested concentration (43.3 µM))
1 | – | COC1=C[C@]23CCCN2CCc2cc4c(cc2[C@@H]3[C@@H]1O)OCO4 [Compound 9, cephalotaxine] | > 25 h | > 25 h | favorable permeability properties | 9.5 ± 2.7 µM | 17.6 ± 5.8 µM | > 83 µM | 23.1 ± 5.2 µM | 10.4 ± 0.75 µM | > 43.3 µM | good | 50% | – | – | –
2 | favorable permeability properties | COC(=O)C[C@](O)(CCCC(C)(C)O)C(=O)O[C@@H]1C(OC)=C[C@]23CCCN2CCc2cc4c(cc2[C@H]13)OCO4 [Compound 10, homoharringtonine, reference compound] | > 12 h | < 1 h | – | 0.0322 ± 0.01 µM | 0.0129 ± 0.002 µM | 6.35 µM | 0.0799 ± 0.01 µM | – | > 43.3 µM | good | – | 0.0452 µM | 0.045 ± 0.005 µM | no observable activity

Source: paper PMC6571673, “Cytostatic and Cytotoxic Natural Products against Cancer Cell Models” (Molecules, 2019)
